# Assay results taken from patent US20100087516A1, “ANTIBACTERIAL MACROLACTIN A THAT BACILLUS POLYFERMENTICUS KJS-2 PRODUCED IN” (priority 2007, published 2010).
# Read-outs that look alike come from different tables or passages of the source.
# Key:
# Bacillus subtilis 168 = experiment: Antibiotic activity test of HPLC fractions of the culture medium; assay type: cell-based
# Experimental: (§1) In order to purify the antibiotic substance produced by strain Bacillus polyfermenticus KJS-2, the seed culture of the strain was diluted into 3 L of TSB medium (TSB agar: Tryptone 17 g, Soytone 3 g, Dextrose 2.5 g, NaCl 5 g, Dipotassium Phosphate 2.5 g, pH 6.8 to 72 to a final concentration of 4% and was cultured for 2.5 days (30° C., 200 rpm, 1 vvm, pH6.8). The culture medium was extracted with […] and analyzed by HPLC under the conditions using a solvent of Step 2 of Example 1, and each peak was fractionated as in FIG. 4. Each fraction was tested for antibiotic activity against Escherichia coli, Bacillus subtilis 168 and Vancomycin-resistant Enterococci. […] FIG. 5 below is the analysis of fraction 1 of FIG. 4 by LC/Mass under the same conditions of Step 2 of Example 1, and the purification was to a purity of 94.63%.
# [1] = tested on: Vancomycin-resistant Enterococci; experiment: as above; assay type: cell-based
# Experimental: as §1
# Escherichia coli = experiment: as above; assay type: cell-based
# Experimental: as §1
# HIV = details: cited from earlier work
# [2] = tested on: 13 MRSA strains, clinically isolated; experiment: Minimal inhibitory concentration (MIC>90) in MH II medium; assay type: cell-based, methicillin-resistant Staphylococcus aureus
# Experimental: (§2) The MIC (minimal inhibitory concentration) against VRE and MRSA was measured to test antibiotic activity of Macrolactin A produced by Bacillus polyfermenticus KJS-2, which is the strain of the present invention, against the two strains. The strains used for the experiment were 11 VRE strains and 13 MRSA strains, which were clinically isolated. Each strain used for the experiment was cultured in MH II medium at 200 rpm for 6 hours at 37° C., the absorbance of the medium measured at OD600nm using a UV detector, and then 1 ml aliquot of the medium was spread over MH II agar medium and incubated for 16 hours at 37° C. The number of colonies formed on the agar medium after 16 hours of incubation was counted. Each strain used for experiment was cultured in MH II medium at 200 rpm for 6 hours at 37° C., and the absorbance of the medium was measured at OD600nm using a UV detector. The number of cells were calculated based on the ratio of the number of colonies to the absorbance of the medium, and measured by the above process. Each culture medium was diluted to the final cell concentration of 0.25*10^7 cfu/ml and Macrolactin A was dissolved in the solvent DMSO, while ampicillin, teycoplanin, vancomycin and methillin were dissolved in water. To measure the MIC of Macrolactin A or of the four antibiotics, the mixture of the materials listed in Table 5 and Macrolactin A or the mixture of the materials listed in Table 6 and each of the four antibiotics, respectively in a 500 μl eppendorff tub, was incubated at 200 rpm for 16 hours at 37° C., and then absorbance was measured by a UV/Visible Light detector at 600 nm using a Fluorescence Multi-Detection Reader.
# [3] = tested on: B16-F10 murine melanoma cancer cell; details: cited from earlier work
# Burkholderia cepacia = details: cited from earlier work
# Vibrio vulnificus = experiment: Bioassay of Macrolactin A on TSB agar medium; assay type: cell-based; details: 10 μl of solution in 50% acetone (2.5 mg/ml)
# Experimental: (§3) The strains used for the experiment were Saccharomyces cerevisiae, Vibrio vulnificus, Micrococcus luteus and Streptococcus parauberis. Each strain, except Vibrio vulnificus, was inoculated and cultured in TSB medium at 200 rpm for 16 hours at 37° C., and then a 0.5 ml (approximately 28*10^9 cfu/ml) aliquot of the culture medium was spread over TSB agar medium. Vibrio vulnificus, was inoculated and cultured in TSB medium at 200 rpm for 16 hours at 25° C., which is its optimum growth conation, and then the amount of the culture medium was spread over the agar medium. The solvent required for the bioassay is a solvent, which can dissolve Macrolactin A, that has no toxicity against the strains used for the experiment.
# Micrococcus luteus = experiment: Bioassay of Macrolactin A on TSB agar medium; assay type: cell-based; details: 10 μl of solution in 50% acetone (2.5 mg/ml)
# Experimental: as §3
# Streptococcus parauberis = experiment: Bioassay of Macrolactin A on TSB agar medium; assay type: cell-based; details: 10 μl of solution in 50% acetone (2.5 mg/ml)
# Experimental: as §3
# Saccharomyces cerevisiae = experiment: Bioassay of Macrolactin A on TSB agar medium; assay type: cell-based; details: 10 μl of solution in 50% acetone (2.5 mg/ml)
# Experimental: as §3
# VRE5 = experiment: Bioassay at a gradient of concentration on TSB agar medium; assay type: cell-based, vancomycin-resistant enterococci; details: 10 μl of solution in 50% acetone
# Heat and pH stability = assay type: physicochemical
# [4] = tested on: 11 VRE strains, clinically isolated; experiment: Minimal inhibitory concentration (MIC>90) in MH II medium; assay type: cell-based, vancomycin-resistant enterococci
# Experimental: as §2
# [5] = tested on: methicillin-resistant Staphylococcus aureu (MRSA); details: cited from earlier work
# [6] = tested on: biosynthesis of cholesterol; details: cited from earlier work
# [7] = tested on: a variety of microorganisms and fungi; experiment: Spectrum of antibiotic activity (general statement); assay type: cell-based
# [8] = tested on: vancomycin-resistant enterococci (VRE); details: cited from earlier work
structure (smiles),measurement,setting,value
CC1CCC/C=C/C=C/C(O)CC(O)C/C=C\C=C\C(O)C/C=C/C=C\C(=O)O1 (centres unmarked) [Macrolactin A],antibiotic activity against Bacillus subtilis 168,Bacillus subtilis 168,excellent antibiotic activity
same,antibiotic activity against Bacillus subtilis 168,Bacillus subtilis 168; listed as fraction 1,had antibiotic activity
same,antibiotic activity against Vancomycin-resistant Enterococci,[1],showed antibiotic activity
same,antibiotic activity against Escherichia coli,Escherichia coli,excellent antibiotic activity
same,antibiotic activity against Escherichia coli,Escherichia coli; listed as fraction 1,had antibiotic activity
same,antiviral activity against HIV,HIV,antiviral activity
same,activity relative to teycoplanin (average MIC>90),[2]; 13 MRSA strains,5.3 times
same,average MIC>90,[2]; Average of the 13 MRSA strains,19.83 µg/mL
same,MIC>90,[2]; MRSA1,31.25 µg/mL
same,MIC>90,[2]; MRSA2,15.63 µg/mL
same,MIC>90,[2]; MRSA3,15.63 µg/mL
same,MIC>90,[2]; MRSA4,31.25 µg/mL
same,MIC>90,[2]; MRSA5,31.25 µg/mL
same,MIC>90,[2]; MRSA6,31.25 µg/mL
same,MIC>90,[2]; MRSA7,15.63 µg/mL
same,MIC>90,[2]; MRSA8,7.81 µg/mL
same,MIC>90,[2]; MRSA8*,15.63 µg/mL
same,MIC>90,[2]; MRSA9,15.63 µg/mL
same,MIC>90,[2]; MRSA10,15.63 µg/mL
same,MIC>90,[2]; MRSA11,15.63 µg/mL
same,MIC>90,[2]; MRSA11*,15.63 µg/mL
same,cytotoxicity on the B16-F10 murine melanoma cancer cell,[3],shows cytotoxicity
same,antibiotic activity against Burkholderia cepacia,Burkholderia cepacia,antibiotic activity only against MRSA
same,antibiotic activity against Vibrio vulnificus,Vibrio vulnificus,excellent antibiotic activity
same,antibiotic activity against Micrococcus luteus,Micrococcus luteus,excellent antibiotic activity
same,antibiotic activity against Streptococcus parauberis,Streptococcus parauberis,excellent antibiotic activity
same,antibiotic activity against Saccharomyces cerevisiae,Saccharomyces cerevisiae,excellent antibiotic activity
same,concentration of solution that inhibits VRE5 on TSB agar medium,VRE5,above 1.25 mg/ml
same,heat stability,Heat and pH stability,excellent heat stability
same,stability in weak acidic and neutral environments,Heat and pH stability; weak acidic and neutral environments,very stable
same,activity relative to teycoplanin (average MIC>90),[4]; 11 VRE strains,4 times
same,average MIC>90,[4]; Average of the 11 VRE strains,31.25 µg/mL
same,MIC>90,[4]; VRE1,31.25 µg/mL
same,MIC>90,[4]; VRE2,31.25 µg/mL
same,MIC>90,[4]; VRE3,31.25 µg/mL
same,MIC>90,[4]; VRE4,31.25 µg/mL
same,MIC>90,[4]; VRE5,15.63 µg/mL
same,MIC>90,[4]; VRE6,31.25 µg/mL
same,MIC>90,[4]; VRE7,31.25 µg/mL
same,MIC>90,[4]; VRE9,31.25 µg/mL
same,MIC>90,[4]; VRE10,31.25 µg/mL
same,MIC>90,[4]; VRE914,62.5 µg/mL
same,MIC>90,[4]; VRE915,15.63 µg/mL
same,antibiotic activity against MRSA,[5],antibiotic activity only against MRSA
same,inhibitory effect on the biosynthesis of cholesterol,[6],inhibitory effect
same,spectrum of antibiotic activity,[7],broad spectrum of antibiotic activity
same,antibiotic activity against VRE,[8],antibiotic activity only against MRSA
